Source: patent publication US20250326748A1, “COMPOUNDS AND METHODS FOR MODULATING SPLICING” (REMIX THERAPEUTICS INC., priority 2022, published 2025)
Where a name gives a salt, the structure may show the parent alone. Read-outs that look alike come from different tables or passages of the source.

Columns and labels:
Assay type in all cases: cell-based, human
HTT mRNA = test: Splicing RT-qPCR assay, HTT canonical (CJ) and alternative (AJ) junction mRNA; conditions: Homo sapiens; for IC50: canonical junction mRNA; for AC50: alternative junction mRNA, read-out: HTT AJ (AC50, increase in AJ mRNA)
In short: (§1)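 One-step RT-qPCR on cell lysates quantified CJ and AJ isoforms, normalized to PPIA for A673 or GAPDH/GUSB for K562. Cells were exposed for 24 h at 37° C to 11 concentrations in 3-fold steps up to 10 uM, with DMSO ≤0.25%. A673 were grown in DMEM and K562 in IMDM, both with 10% FBS.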

MYB mRNA = test: Splicing RT-qPCR assay, MYB canonical (CJ) and alternative (AJ) junction mRNA; conditions: Homo sapiens; for IC50: canonical junction mRNA; for AC50: alternative junction mRNA, read-out: MYB AJ (AC50, increase in AJ mRNA)
In short: as §1

Target C mRNA = test: Splicing RT-qPCR panel, Target C canonical junction (CJ) mRNA; conditions: Homo sapiens, read-out: Target C CJ (decrease in CJ mRNA levels, IC50)
In short: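 A673 cells (DMEM, 10% FBS) or K562 cells (IMDM, 10% FBS) treated 24 h at 37 °C with an 11-point 3-fold dilution, top 10 uM, DMSO ≤0.25%. Canonical-junction mRNA quantified in lysates by RT-qPCR, normalised to GAPDH, GUSB or PPIA and to DMSO (2^−ΔΔCt), then converted to % response.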

[1] = 24 h, RT-qPCR, A673 or K562 cells, 24 hours treatment, read-out: HTT CJ (IC50, decrease in CJ mRNA)
[2] = qPCR panel, read-out: HTT CJ (decrease in CJ mRNA levels, IC50)
[3] = RT-qPCR, A673 or K562 cells, 24 hours treatment
[4] = qPCR panel, read-out: MYB CJ (decrease in CJ mRNA levels, IC50)
[5] = RT-qPCR, A673 or K562 cells, 24 hours treatment, read-out: MYB CJ (IC50, decrease in CJ mRNA)

SMILES	IC50 (HTT mRNA; [1])	IC50 (HTT mRNA; [2])	AC50 (HTT mRNA; [3])	IC50 (MYB mRNA; [4])	AC50 (MYB mRNA; [3])	IC50 (MYB mRNA; [5])	IC50 (Target C mRNA)
CN[C@H]1CCN(c2cnc3nc(-c4cc(C)c5nc(C)cn5n4)cc(Cl)c3c2)C1 [Compound 340]	100 to 1000 nM	100 to 1000 nM	100 to 1000 nM	< 100 nM	100 to 1000 nM	< 100 nM	1000 to 10000 nM
Cc1c(O)c(-c2ccc3cc(N4CCNCC4)cnc3n2)cc2cn(C)nc12 [Compound 137, 2,7-dimethyl-5-[6-(piperazin-1-yl)-1,8-naphthyridin-2-yl]indazol-6-ol]	100 to 1000 nM	100 to 1000 nM	100 to 1000 nM	< 100 nM	< 100 nM	< 100 nM	100 to 1000 nM
Cc1cn2cc(-c3ccc4cc(N5C[C@@H](C)N[C@@H](C)C5)cnc4n3)cc(F)c2n1 [Compound 350]	> 10000 nM	> 10000 nM	> 10000 nM	100 to 1000 nM	1000 to 10000 nM	100 to 1000 nM	> 10000 nM
CN[C@H]1CCN(c2cnc3nc(-c4cc5cn(C)nc5c(C)c4O)cc(Cl)c3c2)C1.Cl [Compound 287]	< 100 nM	< 100 nM	100 to 1000 nM	< 100 nM	< 100 nM	< 100 nM	100 to 1000 nM
CN(c1cnc2nc(-c3cc4cn(C)nc4c(F)c3O)cc(Cl)c2c1)[C@H]1CCNC1 [Compound 275]	1000 to 10000 nM	1000 to 10000 nM	1000 to 10000 nM	< 100 nM	< 100 nM	< 100 nM	1000 to 10000 nM
CCN[C@H]1CCN(c2cnc3nc(-c4cc5cn(C)nc5cc4O)ccc3c2)C1 [Compound 311, 5-{6-[(3S)-3-(ethylamino)pyrrolidin-1-yl]-1,8-naphthyridin-2-yl}-2-methylindazol-6-ol hydrochloride]	100 to 1000 nM	100 to 1000 nM	1000 to 10000 nM	100 to 1000 nM	100 to 1000 nM	100 to 1000 nM	1000 to 10000 nM
Cn1cc2cc(-c3ccc4cc(N5CC[C@@H](NCC6CC6)C5)cnc4n3)c(O)c(F)c2n1 [Compound 135, 5-{6-[(3R)-3-[(cyclopropylmethyl)amino]330pyrrolidine-1-yl]-1,8-naphthyridin-2-yl}-7-fluoro-2-methylindazol-6-ol]	< 100 nM	< 100 nM	< 100 nM	< 100 nM	< 100 nM	< 100 nM	100 to 1000 nM
Cc1cn2nc(-c3cc(Cl)c4cc(N5C[C@H](C)N[C@@H](C)C5)cnc4n3)cc(C)c2n1 [Compound 336]	100 to 1000 nM	100 to 1000 nM	100 to 1000 nM	< 100 nM	< 100 nM	< 100 nM	1000 to 10000 nM
Cc1cn2nc(-c3cnc4nc(C5CCNCC5)ccc4c3)cc(C)c2n1 [Compound 115, 6-(2,8-dimethylimidazo[1,2-b]pyridazin-6-yl)-2-(piperidin-4-yl)-1,8-naphthyridine]	1000 to 10000 nM	1000 to 10000 nM	> 10000 nM	1000 to 10000 nM	1000 to 10000 nM	1000 to 10000 nM	> 10000 nM
C[C@H]1CN(c2cnc3nc(-c4cc(F)c5nn(C)cc5c4)cc(Cl)c3c2)CCN1 [Compound 296]	100 to 1000 nM	100 to 1000 nM	1000 to 10000 nM	< 100 nM	100 to 1000 nM	< 100 nM	1000 to 10000 nM
C[C@@H]1CN(c2cnc3nc(-c4cc5cn(C)nc5c(F)c4O)cc(Cl)c3c2)C[C@H](C)N1 [Compound 279]	100 to 1000 nM	100 to 1000 nM	100 to 1000 nM	< 100 nM	< 100 nM	< 100 nM	1000 to 10000 nM
Cn1cc2cc(-c3ccc4cc(N5CC[C@@H](NCC6CC6)C5)cnc4n3)c(O)cc2n1 [Compound 313]	100 to 1000 nM	100 to 1000 nM	100 to 1000 nM	100 to 1000 nM	< 100 nM	100 to 1000 nM	100 to 1000 nM
Cc1c(O)c(-c2cc(C3CC3)c3cc(N4CCNCC4)cnc3n2)cc2cn(C)nc12 [Compound 144, 5-(4-cyclopropyl-6-(piperazin-1-yl)-1,8-naphthyridin-2-yl)-2,7-dimethyl-2H-indazol-6-ol bis(2,2,2-trifluoroacetate)]	100 to 1000 nM	100 to 1000 nM	100 to 1000 nM	100 to 1000 nM	100 to 1000 nM	100 to 1000 nM	1000 to 10000 nM
